Experimental data reported in paper PMC7954794, “Protein context shapes the specificity of SH3 domain-mediated interactions in vivo” (Nature Communications, 2021).

Tested on: Abp1 PPIs
Assay: DHFR-PCA of Abp1 SH3-swapped baits (Fig. 2B-D, S2C, S2F)
Type: cell-based, Saccharomyces cerevisiae
Details: Fig2B; bait ABP1, label = prey; Replicates 4
From the text: Having determined that multiple PPIs require SH3s, we asked whether the latter establish PPI specificity independently from their host proteins by swapping domains (Fig. 2A). Using the second round of genome editing, we individually replaced Abp1 SH3 with the 27 yeast SH3s and 3 human Abp1 orthologs’ SH3s (CTTN, HCLS1, and DBNL, Fig. 2B). The reintroduction of its own SH3 (Abp1SH3 in Abp1) reconstitutes almost perfectly Abp1’s interaction profile (Kendall’s τ = 0.93, Fig. 2B). […] No homologous SH3 domain fully re-establishes the normal Abp1 PPI profile (Fig. 2B and Supplementary Fig. 2C). However, we observe a significant correlation (cophenetic correlation = 0.20, p value = 0.005, Fig. 2C) between the similarity of PPI profiles (Fig. 2B) and the sequence similarity of the SH3s. […] Nonetheless, a subset of SH3-dependent PPIs is only observed with the endogenous domain. For instance, Hua2 and App1, both well-characterized partners of Abp1[14],[18],[19], are only detected when Abp1 contains its own SH3 (WT or swapped via editing). A given SH3 may therefore not be fully replaceable with other paralogous or orthologous domains. This pattern is confirmed by cellular growth phenotypic analyses (Supplementary Fig. 2D, E). PPIs, SH3 sequence similarity, and growth profiles under stress conditions are correlated (Supplementary Fig. 2D, E). This relationship is particularly clear when analyzing growth on media supplemented with hygromycin.
The stuffing of YSC84 SH3 rendered the strain sterile and was therefore not used for this study as the assays require crosses. For genes containing two SH3s (BZZ1 and BEM1), a combination of this first stuffer with a second one ([…]) coding for a highly similar linker ([…]) was used, which allowed targeting each SH3 position independently. The two N-terminal domains of SLA1, which are separated by six nucleotides, were stuffed by a single stuffer. Cells containing pCAS were selected via the G418 resistance cassette from the plasmid on YPD plates (YPD + NAT 100 μg/ml (DHFR F[1,2] selection) + G418 200 µg/mL (Bioshop Canada)). Colonies were randomly selected and grown in YPD media without G418 to allow plasmid loss. The correct insertion of the stuffer was validated by PCR and Sanger sequencing. The SH3-swapped, -shuffled, and -mutated strains were constructed following a second CRISPR–Cas9 editing step with the same procedures. The stuffer sequences were targeted by specific gRNAs (one gRNA per stuffer) and replaced by PCR amplified specific SH3 (with 40 bp homology arms) or libraries of mutated SH3 domains for Deep Mutational Scanning (DMS) with 78 bp flanking homology regions. Validation of the SH3 domain insertions was done as we previously described except for DMS libraries (see below).
The overall DHFR-PCA pipeline is based on Tarassov et al.[43] and the procedures have also been published as a visualized protocol. The screens were performed with robotically manipulated pin tools (BM5-SC1, S&P Robotics Inc.). First, the preys were cherry-picked from 96-well plates to omnitrays in a 384 format on YPD + HPH solid media. Plates were then combined into the 1536 format on YPD + HPH. The array was constituted of 575 preys previously shown to interact physically with at least one SH3-containing protein as reported in BioGRID V3.4.16 along with 40 negative controls. The prey array comprised a border of control strains of two rows and two columns corresponding to the PPI between LSM8-DHFR F[1,2] and CDC39-DHFR F[3]. This double border was used to remove border effects. Preys are present in duplicate at a randomized position in the 1536 array (except for YAL041W which is present four times per array). Baits were crossed with two prey plates, resulting in four independent bait–prey tests for each PPI. Baits were grown in liquid YPD + NAT and then transferred on solid YPD + NAT omnitrays. They were then replicated on YPD + NAT omnitrays in 1536 array format. […]

With YAL005C the “medrep (log2 median colony size normalized to plate background)” value was 5.43 and the “medsize (median colony size)” value was 6098.
